Assay results published in patent US12636309B2, “Storage stable formulations of sulfated glycosaminoglycans and fragments derived therefrom for the treatment of pain and other medical conditions” (ADORA ANIMAL HEALTH CORPORATION, priority 2022, dated 2026).

What was measured:
[1] = Electrophoresis of polyanionic property on cellulose acetate membrane; format: physicochemical; settings: 0.2 N hydrochloric acid, about 65 mA for 65 minutes; for DISTANCE (CM): electrophoretic migration from cathode end, toluidine blue stain
Experimental: The unique polyanionic property of polysulfated glycosaminoglycan (PSGAG) is determined by electrophoresis. A 70 mm cellulose acetate (CA) membrane, saturated with 0.2 N hydrochloric acid is suspended with contact between the cathode and anode of an electrophoresis chamber. A test solution of PSGA G containing about 1 microgram of PSGAG is applied to the cathode end of the strip. A current of about 65 mA is applied for 65 minutes. The CA membrane is removed from the tank, then stained with a 0.1% toluidine blue solution for 5 minutes. The CA membrane is rinsed with a sufficient quantity of water to remove the excess toluidine blue. On the strip, PSGAG appears as only one violet-blue spot at a distance of approximately 3 cm from its starting point.
The cathode is the negative terminal of the electrophoresis chamber. Anionic compounds, such as PSGAG, under an applied current will migrate towards the chamber's anode (i.e., its positive terminal). The polyanionic property of PSGAG was compared to hyaluronic acid, chondroitin sulfate A, chondroitin sulfate B (dermatan sulfate), chondroitin sulfate C, heparin sulfate and keratan sulfate using electrophoresis.

stromelysin = stromelysin (Homo sapiens, UniProt P08254); settings: cited from earlier work
rabbit chondrocytes = settings: cultured rabbit chondrocytes; cited from earlier work
metalloproteases = settings: cited from earlier work
[2] = system: Prostaglandin E2 (PGE2) synthesis; settings: cited from earlier work
synovial membrane cells = synovial membrane cells in vitro; cited from earlier work
hyaluronidases = settings: cited from earlier work
elastase = settings: cited from earlier work
[3] = rabbits, IM injection; incl. articular cartilage, synovial fluid, kidneys, brain, liver, skin, heart; cited from earlier work
cathepsin B1 = cathepsin B1 (Homo sapiens, UniProt P07858); settings: cited from earlier work
human chondrocytes = settings: cultured human chondrocytes; cited from earlier work
serine proteinases = settings: in vitro; cited from earlier work

Sequence of stromelysin (P08254 100-477): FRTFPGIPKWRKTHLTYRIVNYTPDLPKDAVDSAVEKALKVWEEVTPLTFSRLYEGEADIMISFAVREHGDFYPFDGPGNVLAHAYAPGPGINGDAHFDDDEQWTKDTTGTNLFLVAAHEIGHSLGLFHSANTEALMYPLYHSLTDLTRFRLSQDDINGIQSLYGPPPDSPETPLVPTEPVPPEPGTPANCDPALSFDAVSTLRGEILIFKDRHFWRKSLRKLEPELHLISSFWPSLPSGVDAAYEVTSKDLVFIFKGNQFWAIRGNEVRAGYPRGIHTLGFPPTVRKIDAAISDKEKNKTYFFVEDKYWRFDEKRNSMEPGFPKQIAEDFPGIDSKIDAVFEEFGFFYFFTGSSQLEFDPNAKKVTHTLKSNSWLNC

hyaluronic acid
DISTANCE (CM) [1]: 1.1 ± 0.1 (n = 2) CM

chondroitin sulfate C
DISTANCE (CM) [1]: 2.0 ± 0.3 (n = 2) CM

chondroitin sulfate B (dermatan sulfate)
DISTANCE (CM) [1]: 1.7 ± 0.0 (n = 2) CM

chondroitin sulfate A
DISTANCE (CM) [1]: 2.1 ± 0.0 (n = 2) CM

heparin sulfate
DISTANCE (CM) [1]: 2.3 ± 0.0 (n = 2) CM

keratan sulfate [Keratin Sulfate]
DISTANCE (CM) [1]: 2.5 ± 0.1 (n = 2) CM

polysulfated glycosaminoglycan [PSGAG]
inhibition of stromelysin (stromelysin): inhibit
synthesis of proteoglycan and hyaluronic acid (rabbit chondrocytes): increased synthesis
inhibition of metalloproteases (metalloproteases): inhibit
inhibition of Prostaglandin E2 (PGE2) synthesis [2]: inhibitor
effect on hyaluronic acid synthesis (synovial membrane cells): specific potentiating effect
inhibition of hyaluronidases (hyaluronidases): inhibit
inhibition of elastase (elastase): inhibit
distance of the violet-blue spot from its starting point [1]: approximately 3 cm
DISTANCE (CM) [1]: 3.1 ± 0.3 (n = 12) CM
tissue distribution [3]: distributed to all tissues studied
inhibition of cathepsin B1 (cathepsin B1): inhibit
synthesis of proteoglycan and hyaluronic acid (human chondrocytes): increased synthesis
inhibition of serine proteinases (serine proteinases): significantly inhibit
